In patent publication US6995143B2, “Macrolides with antibacterial activity” (Basilea Pharmaceutica AG, priority 2002, dated 2006):
In brackets after ≈: the same amount, converted by molar mass.

Columns and labels:
Type in all cases: cell-based
[1] = system: Haemophilus influenzae QK12/87; experiment: MIC, standard agar dilution method using HTM medium
How it was run: (§1)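 NCCLS M7-A5 dilution protocol for aerobic bacteria; H. influenzae strains; MIC read per that standard.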

[2] = system: Haemophilus influenzae 12214; experiment: as above
How it was run: as §1

[3] = system: Haemophilus influenzae QK50; experiment: as above
How it was run: as §1

[4] = system: Haemophilus influenzae B1501; experiment: as above
How it was run: as §1

[5] = system: Staphylococcus aureus 1086; experiment: MIC, standard microdilution technique
How it was run: (§2)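 NCCLS M7-A5 dilution protocol for aerobic bacteria; MIC read per that approved standard.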

[6] = system: Staphylococcus aureus 745; experiment: MIC, standard microdilution technique
How it was run: as §2

[7] = system: Escherichia coli ATCC 25922; experiment: MIC, standard microdilution technique
How it was run: as §2

[8] = system: Staphylococcus aureus ATCC 29213; experiment: MIC, standard microdilution technique
How it was run: as §2

[9] = system: Streptococcus pneumoniae 12288; experiment: MIC, standard microdilution technique
How it was run: as §2

[10] = system: Streptococcus pneumoniae l/l; experiment: MIC, standard microdilution technique
How it was run: as §2

[11] = system: Streptococcus pneumoniae SL199T; experiment: MIC, standard microdilution technique
How it was run: as §2

[12] = system: Streptococcus pneumoniae ¼; experiment: MIC, standard microdilution technique
How it was run: as §2

Row | Structure (SMILES) | minimum inhibitory concentration (MIC), Strain I [1] | minimum inhibitory concentration (MIC), Strain K [2] | minimum inhibitory concentration (MIC), Strain L [3] | minimum inhibitory concentration (MIC), Strain M [4] | minimum inhibitory concentration (MIC), Strain B [5] | minimum inhibitory concentration (MIC), Strain C [6] | minimum inhibitory concentration (MIC), Strain D [7] | minimum inhibitory concentration (MIC), Strain A [8] | minimum inhibitory concentration (MIC), Strain H [9] | minimum inhibitory concentration (MIC), Strain E [10] | minimum inhibitory concentration (MIC), Strain G [11] | minimum inhibitory concentration (MIC), Strain F [12]
1 | CC[C@H]1OC(=O)[C@H](C)C(=O)[C@H](C)[C@@H](O[C@@H]2O[C@H](C)C[C@H](N(C)C)[C@H]2O)[C@](C)(OC)C[C@@H](C)C(=O)[C@H](C)[C@H]2[C@@H](SCC(=O)NCc3ncc[nH]3)C(=O)O[C@@]21C [Example 35] | 16 µg/mL (≈ 20.5 µM) | 32 µg/mL (≈ 41 µM) | 16 µg/mL (≈ 20.5 µM) | 16 µg/mL (≈ 20.5 µM) | 8 µg/mL (≈ 10.2 µM) | >32 µg/mL | >32 µg/mL | 8 µg/mL (≈ 10.2 µM) | >32 µg/mL | <=0.06 μg/ml | 16 µg/mL (≈ 20.5 µM) | >32 µg/mL
2 | CC[C@H]1OC(=O)[C@H](C)C(=O)[C@H](C)[C@@H](O[C@@H]2O[C@H](C)C[C@H](N(C)C)[C@H]2O)[C@](C)(OC)C[C@@H](C)C(=O)[C@H](C)[C@H]2[C@@H](SCC(=O)Nc3ccc4ccccc4n3)C(=O)O[C@@]21C [Example 37] | 8 µg/mL (≈ 9.66 µM) | 16 µg/mL (≈ 19.3 µM) | 8 µg/mL (≈ 9.66 µM) | 8 µg/mL (≈ 9.66 µM) | <=0.06 μg/ml | >32 µg/mL | >32 µg/mL | 0.125 µg/mL (≈ 0.151 µM) | >32 µg/mL | <=0.06 μg/ml | >32 µg/mL | 4 µg/mL (≈ 4.83 µM)
3 | CC[C@H]1OC(=O)[C@H](C)C(=O)[C@H](C)[C@@H](O[C@@H]2O[C@H](C)C[C@H](N(C)C)[C@H]2O)[C@](C)(OC)C[C@@H](C)C(=O)[C@H](C)[C@H]2[C@@H](SCC(=O)Nc3ccc4ncccc4c3)C(=O)O[C@@]21C [Example 38] | 8 µg/mL (≈ 9.66 µM) | 16 µg/mL (≈ 19.3 µM) | 16 µg/mL (≈ 19.3 µM) | 8 µg/mL (≈ 9.66 µM) | <=0.06 μg/ml | >32 µg/mL | >32 µg/mL | <=0.06 μg/ml | 32 µg/mL (≈ 38.6 µM) | <=0.06 μg/ml | 8 µg/mL (≈ 9.66 µM) | 4 µg/mL (≈ 4.83 µM)
4 | CC[C@H]1OC(=O)[C@H](C)C(=O)[C@H](C)[C@@H](O[C@@H]2O[C@H](C)C[C@H](N(C)C)[C@H]2O)[C@](C)(OC)C[C@@H](C)C(=O)[C@H](C)[C@H]2[C@@H](SCC(=O)Nc3cnc4ccccc4c3)C(=O)O[C@@]21C [Example 39] | 16 µg/mL (≈ 19.3 µM) | 16 µg/mL (≈ 19.3 µM) | 16 µg/mL (≈ 19.3 µM) | 8 µg/mL (≈ 9.66 µM) | <=0.06 μg/ml | >32 µg/mL | >32 µg/mL | <=0.06 μg/ml | 32 µg/mL (≈ 38.6 µM) | <=0.06 μg/ml | 8 µg/mL (≈ 9.66 µM) | 32 µg/mL (≈ 38.6 µM)
5 | CC[C@H]1OC(=O)[C@H](C)C(=O)[C@H](C)[C@@H](O[C@@H]2O[C@H](C)C[C@H](N(C)C)[C@H]2O)[C@](C)(OC)C[C@@H](C)C(=O)[C@H](C)[C@H]2[C@@H](SCC(=O)Nc3cccc4cnccc34)C(=O)O[C@@]21C [Example 40] | 4 µg/mL (≈ 4.83 µM) | 4 µg/mL (≈ 4.83 µM) | 4 µg/mL (≈ 4.83 µM) | 4 µg/mL (≈ 4.83 µM) | 0.125 µg/mL (≈ 0.151 µM) | >32 µg/mL | >32 µg/mL | 0.125 µg/mL (≈ 0.151 µM) | 4 µg/mL (≈ 4.83 µM) | <=0.06 μg/ml | 0.5 µg/mL (≈ 0.604 µM) | 0.125 µg/mL (≈ 0.151 µM)
